Source: patent US20220033734A1, “FABRIC CONDITIONER COMPOSITIONS” (Conopco, Inc., d/b/a UNILEVER, priority 2018, published 2022)

Test system: Gram-negative non-fermenting bacteria: B. cepacia, P. aeruginosa, Strenotrophomonas sp
Test: Modified challenge test in fabric conditioner, Total Viable Count pour plate: Gram-negative non-fermenting bacteria
Format: cell-based
Settings: overall statement on the challenge tests of Tables 3 and 4
Description: Water was heated to ˜45° C., the Cetearyl alcohol was added followed by the minors. A premix of melted quaternary ammonium active was then added and mixed. The formulation was then cooled to ˜35° C. and any remaining minors added.
Itaconic acid, lactic acid and citric acid were purchased from Sigma-Aldrich. Samples of unpreserved fabric conditioner were dosed with itaconic acid, citric acid or lactic acid separately, according to Tables 3 and 4. Each dosed product was adjusted to pH 5 using 50% sodium hydroxide (Sigma-Aldrich). An unpreserved sample was kept as a control.
A modified challenge test method was performed on samples as defined in […]. The microbial compositions comprising the bacteria listed in Tables 2 and 3 were produced with an inoculum level of 5×10^7 CFU/G in sodium chloride.
The microbial compositions were added to each fabric conditioner formulation at a ratio of 1:10 (by weight) microbial composition to fabric conditioner formulation. […]
Both the inoculum level and the level of microorganism within each sample was quantified using a Total Viable Count (TVC) pour plate method after contact times as indicated in data tables. […] Visible colonies were counted with the aid of a Quebec Colony Counter and recorded for analysis against the challenge test criteria.

For `C=C(CC(=O)O)C(=O)O` [itaconic acid], the “Preservation performance compared with other systems” value was “out performed citric acid, lactic acid and unpreserved systems”.
